The text below walks through data of patent US20040171688A1, “Carboxylic acids and derivatives thereof and pharmaceutical compositions containing them” (priority 1997, published 2004).

For assay [1] the following is noted: dietary fatty acid; cited from earlier work.
For a further assay, the target named is T1, HNF-4α (Rattus norvegicus, UniProt P22449).
T1 sequence (P22449 1-464 isoform P22449-2): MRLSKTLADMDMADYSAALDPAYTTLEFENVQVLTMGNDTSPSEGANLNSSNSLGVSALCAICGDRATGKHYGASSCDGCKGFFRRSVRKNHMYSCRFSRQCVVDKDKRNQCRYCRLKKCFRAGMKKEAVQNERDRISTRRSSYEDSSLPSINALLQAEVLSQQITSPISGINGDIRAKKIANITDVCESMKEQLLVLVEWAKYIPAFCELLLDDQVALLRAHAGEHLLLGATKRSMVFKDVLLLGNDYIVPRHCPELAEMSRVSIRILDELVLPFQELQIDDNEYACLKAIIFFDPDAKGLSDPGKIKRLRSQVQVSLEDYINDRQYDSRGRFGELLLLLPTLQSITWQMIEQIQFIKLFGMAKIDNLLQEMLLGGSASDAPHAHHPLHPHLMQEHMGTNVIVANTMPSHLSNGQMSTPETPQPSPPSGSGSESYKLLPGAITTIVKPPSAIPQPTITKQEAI
The assay can be described thus: Transfection assay: COS-7 cells cotransfected with (C3P)3-TK-CAT reporter and pSG5-HNF-4α. More on the design: expressed in transfected cells; host or cells: COS-7. The settings on record: free fatty acids added to culture medium of COS-7 cells (FIG. 4a). In kind it is cell-based. The protocol: a. […] Fold induction of CAT activity by transfected HNF-4I is determined by evaluating CAT activity in the presence of pSG5-HNF-4I as compared with pSG5 plasmid and as function of respective fatty acids added to the culture medium as indicated. The figure summarizes 3-4 independent experiments for each fatty acid. Mean ± S.E.
b. […] Fold induction refers to CAT activity in cells incubated with 3,3,12,12-tetramethyl-tetradecanedioic acid (∘), 3,3,14,14-tetramethyl-hexadecanedioic acid (□) and 3,3,16,16-tetramethyl-octadecanedioic acid (Δ) proligands normalized to the activity in cells incubated in the absence of added proligands.
COS-7 cells cotransfected for 6 h with the (C3P)3-TK-CAT reporter plasmid (5 μg) and with either the pSG5-HNF-4α expression plasmid ([…]) or the pSG5 plasmid (0.025 μg) added by calcium phosphate precipitation were cultured in serum free medium with fatty acids (complexed with albumin in a molar ratio of 6:1) added as indicated. β-Galactosidase expression vector pRSGAL (1 μg) added to each precipitate served as an internal control for transfection. The (C3P)3-TK-CAT construct was prepared by inserting a synthetic oligonucleotide encompassing the (−87/−66) Apo CIII promoter sequence (5′-[…]-3′) flanked by HindIII restriction site into pBLCAT2^47 upstream of the −105 bp thymidine kinase promoter. The construct containing three copies of the synthetic oligonucleotide in the direct orientation was selected and confirmed by sequencing.
The intracellular effect of HNF-4α ligands on HNF-4α mediated transcription was evaluated in COS-7 cells cotransfected with an expression vector for HNF-4α and with a CAT reporter plasmid driven by a thymidine kinase promoter and enhanced by one to three C3P copies of the apo CIII gene promoter. Transfected cells were incubated in the presence of free fatty acids and xenobiotic amphipathic carboxylates representing agonistic or antagonistic HNF-4α proligands.

For assay [2] the following is noted: dietary fatty acid; cited from earlier work. The source holds these as a separate data set.

With `CCCCCCCCCCCCCC(=O)O` [myristic(14:0), myristic(14:0) acid], the “plasma VLDL-, LDL- and HDL-cholesterol” value in assay [1] is “increase”. The “effect on HNF-4α dependent transcription (CAT activity)” value at HNF-4α is reported as “dose dependent activation”.

With `CCCCCCCCCCCCCCCCCC(=O)O` [stearic(18:0), stearic(18:0) acid], in assay [1], the blood lipids entry is “lowering”. The “effect on HNF-4α dependent transcription (CAT activity)” value on HNF-4α is recorded as “suppressive”. Further, in assay [2], the “factor VII content and blood coagulability” value is “decrease”.
